Measurements taken from ChEMBL document CHEMBL1146328, “Binding mode and affinity studies of DNA-binding agents using topoisomerase I DNA unwinding assay” (Bioorg Med Chem Lett, 2007).

Key:
[1] = Partition coefficient, log P of the compound; assay type: physicochemical; settings: octanol/water
[2] = tested on: DNA; experiment: Binding affinity to calf thymus DNA by ITC method; assay type: nucleic-acid assay; settings: Bos taurus
[3] = species: Homo sapiens; experiment: Binding affinity to DNA by spectrophotometric titration method
[4] = molecular target: T1, DNA topoisomerase 1 (Homo sapiens) (UniProt P11387); experiment: Binding affinity to topoisomerase 1 assessed as concentration needed for complete DNA re-supercoiling by Topo1 assay
T1 sequence (whole entry): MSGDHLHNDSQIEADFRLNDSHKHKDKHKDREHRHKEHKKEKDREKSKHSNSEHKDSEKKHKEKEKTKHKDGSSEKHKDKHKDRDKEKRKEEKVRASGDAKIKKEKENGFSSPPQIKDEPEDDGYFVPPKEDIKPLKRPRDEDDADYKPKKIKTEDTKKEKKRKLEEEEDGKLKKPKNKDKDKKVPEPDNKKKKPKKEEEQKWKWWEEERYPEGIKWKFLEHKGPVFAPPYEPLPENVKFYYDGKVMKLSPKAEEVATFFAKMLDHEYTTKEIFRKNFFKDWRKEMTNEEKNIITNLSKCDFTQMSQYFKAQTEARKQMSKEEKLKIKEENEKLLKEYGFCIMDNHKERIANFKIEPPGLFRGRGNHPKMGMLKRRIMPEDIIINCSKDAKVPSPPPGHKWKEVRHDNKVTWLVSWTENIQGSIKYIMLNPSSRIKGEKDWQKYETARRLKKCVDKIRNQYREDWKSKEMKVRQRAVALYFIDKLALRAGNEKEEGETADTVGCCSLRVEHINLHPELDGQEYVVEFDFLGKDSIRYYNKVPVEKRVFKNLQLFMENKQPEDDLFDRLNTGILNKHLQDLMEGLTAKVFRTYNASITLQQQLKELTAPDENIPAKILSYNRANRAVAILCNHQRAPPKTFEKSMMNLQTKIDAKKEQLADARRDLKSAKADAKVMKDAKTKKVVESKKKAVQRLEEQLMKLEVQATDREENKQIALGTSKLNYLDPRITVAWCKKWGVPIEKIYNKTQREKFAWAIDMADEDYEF

[5] = species: Homo sapiens; experiment: Binding affinity to DNA assessed as thermal melting temperature

logP [1]	K [2]	K [3]	Activity [4] [µM]	ΔTm [5] [°C]	Structure (SMILES)
-2.5	12.2 10^5/M	5 10^5/M	3	7.6	C[N+](C)(C)CCCN1C(=O)c2ccc3c4c(ccc(c24)C1=O)C(=O)N(CCC[N+](C)(C)C)C3=O
-0.9	5.7 10^5/M	1 10^5/M	5	4.6	CCCC[N+](C)(CCCC)CCCN1C(=O)c2ccc3c4c(ccc(c24)C1=O)C(=O)N(CCC[N+](C)(CCCC)CCCC)C3=O
